Experimental data taken from the supplement of paper PMC10307832.

Legend:
Experiment in all cases: relative viability (nuclei count vs DMSO), 5 days (fraction); higher = more cells survive
IMD-0354 + Dasatinib = compound: O=C(Nc1cc(C(F)(F)F)cc(C(F)(F)F)c1)c1cc(Cl)ccc1O [IMD-0354] + Cc1nc(Nc2ncc(C(=O)Nc3c(C)cccc3Cl)s2)cc(N2CCN(CCO)CC2)n1 [Dasatinib] (partner 0.075 µM)
Outline: (§1)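 For relative viability, nuclei counts in treated wells were divided by those in vehicle wells. Lung cancer cell lines had been pin-tool dosed in 1536-well plates the day after seeding and cultured for 5 days, then fixed and stained in one step (final 0.05% Triton X-100, 1% formaldehyde, 1 ug/ml Hoechst) and imaged at 4×. Doses were one drug alone or a fixed anchor-drug dose plus five library-drug doses (not always all listed) in √10 steps, and values are duplicate-plate medians.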

CX-5461 + Decitabine = compound: Cc1cnc(CNC(=O)c2c(=O)c3ccc(N4CCCN(C)CC4)nc3n3c2sc2ccccc23)cn1 [CX-5461] + Nc1ncn([C@H]2C[C@H](O)[C@@H](CO)O2)c(=O)n1 [Decitabine] (partner 2 µM)
Outline: as §1

IMD-0354 + Luminespib = compound: O=C(Nc1cc(C(F)(F)F)cc(C(F)(F)F)c1)c1cc(Cl)ccc1O [IMD-0354] + CCNC(=O)c1noc(-c2cc(C(C)C)c(O)cc2O)c1-c1ccc(CN2CCOCC2)cc1 [Luminespib] (partner 0.01 µM)
Outline: as §1

CX-5461 + Bortezomib = compound: Cc1cnc(CNC(=O)c2c(=O)c3ccc(N4CCCN(C)CC4)nc3n3c2sc2ccccc23)cn1 [CX-5461] + CC(C)C[C@H](NC(=O)[C@H](Cc1ccccc1)NC(=O)c1cnccn1)B(O)O [Bortezomib] (partner 0.002 µM)
Outline: as §1

| Cell Line | relative viability (IMD-0354 + Dasatinib; first compound 0.04 µM) | relative viability (IMD-0354 + Dasatinib; first compound 0.1265 µM) | relative viability (IMD-0354 + Dasatinib; first compound 0.4 µM) | relative viability (IMD-0354 + Dasatinib; first compound 1.265 µM) | relative viability (IMD-0354 + Dasatinib; first compound 4 µM) | relative viability (CX-5461 + Decitabine; first compound 0.01 µM) | relative viability (CX-5461 + Decitabine; first compound 0.03162 µM) | relative viability (CX-5461 + Decitabine; first compound 0.1 µM) | relative viability (CX-5461 + Decitabine; first compound 0.3162 µM) | relative viability (CX-5461 + Decitabine; first compound 1 µM) | relative viability (IMD-0354 + Luminespib; first compound 0.04 µM) | relative viability (IMD-0354 + Luminespib; first compound 0.1265 µM) | relative viability (IMD-0354 + Luminespib; first compound 0.4 µM) | relative viability (IMD-0354 + Luminespib; first compound 1.265 µM) | relative viability (IMD-0354 + Luminespib; first compound 4 µM) | relative viability (CX-5461 + Bortezomib; first compound 0.01 µM) | relative viability (CX-5461 + Bortezomib; first compound 0.03162 µM) | relative viability (CX-5461 + Bortezomib; first compound 0.1 µM) | relative viability (CX-5461 + Bortezomib; first compound 0.3162 µM) | relative viability (CX-5461 + Bortezomib; first compound 1 µM) |
| --- | --- | --- | --- | --- | --- | --- | --- | --- | --- | --- | --- | --- | --- | --- | --- | --- | --- | --- | --- | --- |
| NCI-H650 | 0.514 | 0.484 | 0.404 | 0.264 | 0.197 | 0.328 | 0.272 | 0.298 | 0.32 | 0.313 | 0.791 | 0.873 | 0.59 | 0.381 | 0.167 | 0.887 | 0.832 | 0.739 | 0.594 | 0.483 |
| NCI-H661 | 0.903 | 1.04 | 0.533 | 0.197 | 0.234 | 0.523 | 0.531 | 0.458 | 0.429 | 0.383 | 0.971 | 0.946 | 0.364 | 0.254 | 0.217 | 0.885 | 0.877 | 0.61 | – | 0.639 |
| NCI-H727 | 0.325 | 0.4 | 0.326 | 0.256 | 0.314 | 0.89 | 0.917 | 0.839 | 0.83 | 0.956 | 0.344 | 0.295 | 0.371 | 0.191 | 0.302 | 1.03 | 0.812 | 0.596 | 0.718 | 0.662 |
| NCI-H838 | 0.239 | 0.321 | 0.256 | 0.239 | 0.214 | 0.475 | 0.479 | 0.47 | 0.429 | 0.332 | 0.571 | 0.246 | 0.27 | 0.217 | 0.244 | 0.902 | 0.85 | 0.979 | 0.29 | 0.646 |
| NCI-H1355 | 0.761 | 0.718 | 0.574 | 0.198 | 0.294 | 0.356 | 0.34 | 0.395 | 0.371 | 0.348 | 0.769 | 0.585 | 0.567 | 0.333 | 0.32 | 1.2 | 1.19 | 1.12 | 1.28 | 0.877 |
| NCI-H1437 | 0.528 | 0.381 | 0.255 | 0.0882 | 0.144 | 0.603 | 0.556 | 0.545 | 0.51 | 0.435 | 1.21 | 0.899 | 0.45 | 0.191 | 0.202 | 0.45 | 0.423 | – | 0.369 | 0.316 |
| NCI-H1650 | 0.368 | 0.33 | 0.183 | 0.142 | 0.137 | 0.395 | 0.441 | 0.344 | 0.378 | 0.207 | 0.215 | 0.208 | 0.171 | 0.196 | 0.176 | 0.202 | 0.191 | – | 0.19 | 0.175 |
| NCI-H1651 | 0.515 | 0.363 | 0.26 | 0.0542 | 0.0748 | 0.598 | 0.554 | 0.452 | 0.588 | 0.158 | 0.984 | 0.557 | 0.289 | 0.247 | 0.153 | 0.899 | 0.896 | 0.816 | 0.969 | 0.404 |
